# Source: patent US20260355184A1, “SMALL MOLECULE DEGRADERS OF HIV-1 TAT PROTEIN” (priority 2022, published 2026)
# Entries after “also recorded” stand apart in the source; their conditions may differ.
# What was measured:
# OM10.1 and ACH-2 cells = assay: Toxicity / cell viability in latent cell models; settings: OM10.1 and ACH2; 96-day period with ARVs
# Experimental: Next, the activity of these leads against HIV infection was evaluated using the reporter cell line HeLa-CD4-LTR-LacZ, which stably expresses the β-galactosidase (β-Gal) gene under the control of the HIV 5′ LTR. The HIV NL4.3 strain was used for these studies and β-Gal activity was measured 72 hrs post infection (FIG. 3A). Cytotoxicity assays using Cell-Titer-Glo were performed in parallel to assess cell viability (FIG. 3A). […] Their anti-HIV activity was further assessed in acute replication of Jurkat T cells with the NL4.3 strain (FIG. 3A). […] These OM10.1 cells contain a single integrated wild-type provirus, while ACH-2 cells contain a single integrated provirus with a TAR mutation C37T, defective Tat-TAR feedback loop (FIG. 3B).
# ACH2 cells = assay: SAHA mediated reactivation from latency in ACH2 cells; type: cell-based, HIV; settings: text: day 12 and 32, FIG. 4B legend: day 12, vs DMSO+ARVs
# [1] = molecular target: Tat protein (ubiquitin chains) (Human immunodeficiency virus type 1 (HXB3 ISOLATE), UniProt P69698); assay: Ubiquitin linkage assay: HA-Ubiquitin lysine mutants and Flag-Tat in HEK293T, western blot; type: cell-based, HIV; settings: HA-Ubiquitin mutants, TT-44881 60 μM, 24 hours
# Tat protein (ubiquitin chains), sequence (P69698 whole entry): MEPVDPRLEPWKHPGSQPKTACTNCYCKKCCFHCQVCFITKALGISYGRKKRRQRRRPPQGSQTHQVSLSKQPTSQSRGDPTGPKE
# Source text: FIG. 10. TT-44881's anti-HIV activity engages heterogenous lysine linked Ubiquitin chains (K48 and K33 chains). A. Example of covalent binding of the Ubiquitin chains to the lysine residues of the Tat protein. B. Schematic of the different Ubiquitin chains that can be linked to the Tat protein to induce its degradation or stabilization. C. […] HEK293T cells overexpressing HA-Ubiquitin proteins (which have each lysine singly mutated to arginine or only one lysine present) and Flag-Tat protein were treated with TT-44881. Western blot assays were performed 24 hours later. TT-44881: 60 μM. Shown is representative of n=3.
# Which Ubiquitin linkage engaged in the TT-44881 degradation activity was also investigated. HEK293T cells were transfected with Tat protein and HA-Ubiquitin which has each lysine singly mutated to arginine or only one lysine present.
Compound,cell viability (OM10.1 and ACH-2 cells),SAHA mediated reactivation from latency (ACH2 cells),ubiquitin chain linkages engaged in Tat degradation [1]
COCCOc1ccc(C(F)(F)F)cc1NC(=O)Cn1cc(C(F)(F)F)cc(Cl)c1=O [TT-44863],without affecting cell viability,potently blocked SAHA mediated reactivation from latency,–
O=C(CCCCN1CCCC1=O)c1nn(-c2ccccc2)c2c1CCC2 [TT-44881],without affecting cell viability,potently blocked SAHA mediated reactivation from latency,"K48-linked ubiquitin chains are involved in TT-44881 activity, K33 linked ubiquitin chains also seemed to be engaged; also recorded: blocks TT-44881 induced Tat degradation"
